Measured values from patent US7919101B2 (priority 2008, dated 2011).
Where “and” joins values, the source holds several entries; their conditions need not be identical. Identical values can stand only once. Like-named read-outs stand apart in the source and are kept apart here.

Columns and labels:
HIV-1 NL4-3D36G = test: Inhibition of infection by T-20-sensitive strain NL4-3D36G; format: cell-based; settings: NL4-3D36G
Experimental: 2. Inhibition of HIV infection as measured by luciferase assay. The inhibitory activity of fusion/entry inhibitors on HIV infection in TZM-bl cells was determined by using a luciferase assay (Wei X et al. Antimicrob. Agents Chemother. 46:1896-1905, 2002). Briefly, 50 μl of a compound at graded concentration in triplicate were incubated with an equal volume of an HIV-1 isolate at 0.01 multiplicity of infection (MOI) at 37° C. for 30 min, followed by addition of the mixture to 100 μl TZM-bl cells (1×10^5/ml) that were pre-cultured in a 96-well plate at 37° C. overnight. After further culture at 37° C. for 3 days, the cells were harvested and lyzed with 50 μl lysing reagent. The luciferase activity was analyzed using a luciferase kit (Promega Corp.) and a luminometer (Model: Ultra […], Tecan) according to the manufacture's instruction. The percent inhibition of cell fusion by a compound as well as EC50 and EC90 values were calculated using the software CalcuSyn.
3. Inhibition of HIV replication as measured by p24 antigen production. The inhibitory activity of fusion/entry inhibitors on HIV-1 infection as measured by p24 antigen production was determined as previously described (Zhao Q et al. AIDS Res Hum Retroviruses 18:989-997, 2002). In brief, 1×10^4 MT-2 cells were infected with an HIV-1 strain (100 TCID50) in 200 μl RPMI 1640 medium containing 10% FBS in the presence or absence of testing compounds at graded concentrations overnight. Then the culture supernatants were removed and fresh media containing no testing compounds were added. On the fourth day post-infection, 100 μl of culture supernatants were collected from each well, mixed with equal volumes of 5% Triton X-100 and assayed for p24 antigen, which was quantitated by ELISA. Briefly, wells of polystyrene plates were coated with HIV immunoglobulin (HIVIG, prepared from plasma of HIV-seropositive donors with high neutralizing titers against HIV-1IIIB), in 0.085 M carbonate-bicarbonate buffer (pH 9.6) at 4° C. overnight, followed by washes with washing buffer (0.01 M PBS containing 0.05% Tween-20) and blocking with PBS containing 1% dry fat-free milk. Virus lysates were added to the wells and incubated at 37° C. for 1 hr. […] Reactions were terminated by addition of 1N H2SO4. Absorbance at 450 nm was recorded in an ELISA reader (Ultra 384, TECAN). Recombinant protein p24, purchased from US Biological, was included for establishing standard dose response curves. Each sample was tested in triplicate. The percentage of inhibition of p24 production was calculated as previously described (Neurath A R et al. BMC Infect Dis 2:6, 2002).
4. Synergy analysis. […] In all analyses, HIV fusion/entry inhibitors were assumed to act noncompetitively, which led to a more conservative estimate of synergy. CI values<1 and >1 indicate synergy and antagonism, respectively. Dose reductions were calculated as the compound concentrations required for inhibition of HIV-1 replication when the compound was used alone and in combination. The statistic analysis was performed by the One-Way Analysis of Variance (One-Way ANOVA) method using Origin 6.1 software.

[1] = test system: HIV-1-mediated cell-cell fusion (H9/HIV-1IIIB cells and MT-2 cells); test: HIV-1-mediated cell-cell fusion, dye transfer assay; format: cell-based
Experimental: The inhibitory activities of the compounds on HIV-induced cell-cell fusion were determined using a dye transfer assay (Jiang S et al. Proc SPIE 3926:212-219, 2000). Briefly, H9/HIV-1IIIB cells were pre-labeled with a fluorescent dye, Calcein AM (Molecular Probes, Inc.), and incubated with a testing compound at a graded concentration at 37° C. for 30 min in a 96-well cell culture plate. Then the CD4^+ MT-2 cells were added to the H9/HIV-1IIIB cells at a ratio of 10:1, followed by incubation at 37° C. for 2 hrs. The fused and unfused calcein-labeled HIV-1-infected cells were counted under an inverted fluorescence microscope with an eyepiece micrometer disc.

[2] = in combination T-20:C34 (8:1) vs alone
[3] = in combination T-20:Sifuvirtide (4:1)
[4] = in combination T-20:Sifuvirtide (4:1) vs alone
[5] = in combination T-20:T-1144 (4:1)
[6] = in combination T-20:T-1144 (4:1) vs alone
[7] = in combination T-20:T-1249 (4:1)
[8] = in combination T-20:T-1249 (4:1) vs alone
[9] = in combination T-20:T-1249:C34 (8:2:1)
[10] = in combination T-20:T-1249:C34 (8:2:1) vs alone
[11] = in combination T-20:T-1249:T-1144 (4:1:1)
[12] = in combination T-20:T-1249:T-1144 (4:1:1) vs alone
[13] = peptide tested alone, listed as T20

For enfuvirtide, the Dose reduction (HIV-1 NL4-3D36G; T-20+T-1249+T-1144 7:5:1) was 18.61 fold, the Dose reduction (HIV-1 NL4-3D36G; T-20 combined with T-1144) was 15.53 fold and the Dose reduction (HIV-1 NL4-3D36G; T-20 combined with T-1249) was 6.48 fold. The “EC70 Concentration Mix” value ([1]; in combination T-20:C34 (8:1)) was 427 pM, the “EC95 Concentration Mix” value ([1]; in combination T-20:C34 (8:1)) was 682 pM and the “Potency increase at EC50” value [1, 2] was 61.108 fold. For the same substance, the “Potency increase at EC70” value [1, 2] was 62.834 fold, the “Potency increase at EC95” value [1, 2] was 65.594 fold and the EC50 ([1]; in combination T-20:C34 (8:1), read-out: EC50 Concentration Mix) was 324 pM. For the same substance, the EC90 ([1]; in combination T-20:C34 (8:1), read-out: EC90 Concentration Mix) was 564 pM, the “EC70 Concentration Mix” value [1, 3] was 2356 pM and the “EC95 Concentration Mix” value [1, 3] was 3537 pM. For the same substance, the “Potency increase at EC50” value [1, 4] was 8.928 fold, the “Potency increase at EC70” value [1, 4] was 8.863 fold and the “Potency increase at EC95” value [1, 4] was 8.757 fold. The EC50 ([1]; in combination T-20:Sifuvirtide (4:1), read-out: EC50 Concentration Mix) was 1850 pM, the EC90 ([1]; in combination T-20:Sifuvirtide (4:1), read-out: EC90 Concentration Mix) was 3000 pM and the “EC70 Concentration Mix” value [1, 5] was 33 pM. The “EC95 Concentration Mix” value [1, 5] was 52 pM, the “Potency increase at EC50” value [1, 6] was 791.960 fold and the “Potency increase at EC70” value [1, 6] was 813.030 fold. For the same substance, the “Potency increase at EC95” value [1, 6] was 860.288 fold, the EC50 ([1]; in combination T-20:T-1144 (4:1), read-out: EC50 Concentration Mix) was 25 pM and the EC90 ([1]; in combination T-20:T-1144 (4:1), read-out: EC90 Concentration Mix) was 43 pM. For the same substance, the “EC70 Concentration Mix” value [1, 7] was 51 pM, the “EC95 Concentration Mix” value [1, 7] was 82 pM and the “Potency increase at EC50” value [1, 8] was 521.026 fold. For the same substance, the “Potency increase at EC70” value [1, 8] was 526.078 fold, the “Potency increase at EC95” value [1, 8] was 545.549 fold and the EC50 ([1]; in combination T-20:T-1249 (4:1), read-out: EC50 Concentration Mix) was 38 pM. The EC90 ([1]; in combination T-20:T-1249 (4:1), read-out: EC90 Concentration Mix) was 68 pM, the “EC70 Concentration Mix” value [1, 9] was 70 pM and the “EC95 Concentration Mix” value [1, 9] was 108 pM. The “Potency increase at EC50” value [1, 10] was 366.648 fold, the “Potency increase at EC70” value [1, 10] was 383.286 fold and the “Potency increase at EC90” value [1, 10] was “more than 399 fold”. For the same substance, the “Potency increase at EC95” value [1, 10] was 414.213 fold, the “Potency increase at EC90” value ([1]; in combination T-20:T-1249:C34 (8:2:1) vs alone, listed as T20) was 399.648 fold and the EC50 ([1]; in combination T-20:T-1249:C34 (8:2:1), read-out: EC50 Concentration Mix) was 54 pM. For the same substance, the EC90 ([1]; in combination T-20:T-1249:C34 (8:2:1), read-out: EC90 Concentration Mix) was 91 pM, the “EC70 Concentration Mix” value [1, 11] was 19 pM and the “EC95 Concentration Mix” value [1, 11] was 29 pM. The “Potency increase at EC50” value [1, 12] was 1319.933 fold, the “Potency increase at EC70” value [1, 12] was 1412.105 fold and the “Potency increase at EC95” value [1, 12] was 1542.586 fold. For the same substance, the EC50 ([1]; in combination T-20:T-1249:T-1144 (4:1:1), read-out: EC50 Concentration Mix) was 15 pM, the EC90 ([1]; in combination T-20:T-1249:T-1144 (4:1:1), read-out: EC90 Concentration Mix) was 25 pM and the “EC70 Concentration Alone” value ([1]; peptide tested alone) was 26830 pM and 20882 pM. For the same substance, the “EC95 Concentration Alone” value ([1]; peptide tested alone) was 44735 pM and 30973 pM, the “EC70 Concentration Alone” value [1, 13] was 26830 pM and the “EC95 Concentration Alone” value [1, 13] was 44735 pM. The EC50 ([1]; peptide tested alone, read-out: EC50 Concentration Alone) was 19800 pM and 16500 pM and the EC90 ([1]; peptide tested alone, read-out: EC90 Concentration Alone) was 36400 pM and 26400 pM.
